Measurements as given in patent US12622975B2, “Peptide-conjugated prodrugs” (priority 2019, dated 2026).
≈ marks a conversion by molar mass, not a printed value. Entries after “also recorded” stand apart in the source; their conditions may differ.

Assays:
HS-5 cells = test: Cell viability assay (MTT), HS-5; format: cell-based, human; conditions: 24 hours
E. coli K-12 = conditions: E. coli K-12, literature values; cited from earlier work
[1] = tested on: wild type E. coli strain (K-12); test: Bacteria culture and inhibitory activity assay (MIC); format: cell-based
Protocol: (§1) Bacteria culture and inhibitory activity assay: Single esterase (BioH, YjfP, FrsA, YbfF, YfbB, YqiA, YeiG, or and YpfH) deletion mutants were purchased from Dharmacon Horizon Discovery (Cambridge, United Kingdom). […] Compounds were added at different concentrations.
Compounds were added at different concentrations.

E. coli (K-12) lysate = test: Hydrolysis assay with E. coli lysate; format: in vitro ADME; conditions: compound 200 μM
Protocol: (§2) Hydrolysis assay: Wild-type E. coli strains (K12) were harvested by centrifugation and the cell pellets were lysed using a sonic device. After centrifugation, the supernatant was collected and the proteinase inhibitor was added in the E. coli lysate. The concentration of E. coli lysate was normalized by the fluorescence intensity of 5-carboxyfluorescein diacetate (CFDA). Briefly, different concentrations of CES (4 U/mL, 2 U/mL, 1 U/mL, 0.5 U/mL, 0.25 U/mL, 0.125 U/mL, 0.0625 U/mL, 0.03125 U/mL, 0.015625 U/mL and 0 U/mL) and different amount of E. coli lysates were prepared in PBS buffer. Followed by, 25 μM of CFDA was added in and incubated at room temperature for 1 hour. Then the fluorescence was tested to draw a fluorescence-concentration dependent curve for figuring out the concentration of E. coli lysates. Solutions of CLsuGG (200 μM) were prepared in pH 7.4 PBS buffer. CES and E. coli lysate (0.1 U/mL) were added and incubated with above solutions at 37° C. for 24 hours. At different time points, the solution was taken out, extracted with an equal volume of butanol, concentrated to dryness, and resuspended with butanol for HPLC analysis. HPLC was performed with Agilent 1100 Series Liquid Chromatograph equipped with an XTerra C18 reverse phase column and Variable Wavelength Detector. The hydrolyzed mixture resuspended in 1 mL of butanol was injected to HPLC mobile phase (0.1% trifluoroacetic acid, the starting ratio: 10% acetonitrile and 90% water). The system was run at a flow rate of 10 mL/min.
as §2, with “analysis.” for “analysis. HPLC was performed with Agilent 1100 Series Liquid Chromatograph equipped with an XTerra C18 reverse phase column and Variable Wavelength Detector. The hydrolyzed mixture resuspended in 1 mL of butanol was injected to HPLC mobile phase (0.1% trifluoroacetic acid, the starting ratio: 10% acetonitrile and 90% water). The system was run at a flow rate of 10 mL/min.”

carboxylesterase (CES) = test: Hydrolysis assay with exogenous carboxylesterase; format: in vitro ADME, porcine; conditions: CES 0.1 U/mL
Text: Experimental materials and instruments. All the solvents and chemical reagents were used directly as received from the commercial sources without further purification unless otherwise stated. Carboxylesterase (CES) from porcine liver was purchased from Sigma-Aldrich (lyophilized powder, >15 units/mg solid; Unit definition: One unit will hydrolyze 1.0 μmole of ethyl butyrate to butyric acid and ethanol per min at pH 8.0 at 25). CLsuGG, CLsuG, CLsuGGG were purified with Agilent 1100 Series Liquid Chromatography system, equipped with an XTerra C18 RP column and Variable Wavelength detector.
as §2, with “Briefly, different concentrations of CES (4 U/mL, 2 U/mL, 1 U/mL, 0.5 U/mL, 0.25 U/mL, 0.125 U/mL, 0.0625 U/mL, 0.03125 U/mL, 0.015625 U/mL and 0 U/mL) and different amount of E. coli lysates were prepared in PBS buffer. Followed by, 25 μM of CFDA was added in and incubated at room temperature for 1 hour.” left out, “CES and E. coli lysate (0.1 U/mL) were added and incubated with above solutions at 37° C. for 24 hours.” left out

[2] = tested on: YdgR transporter knockout mutants of E. coli; test: Antibacterial activity against YdgR transporter knockout mutant; format: cell-based; conditions: YdgR mutant versus wild-type E. coli
Protocol: as §1
To verify whether bacterial oligopeptide transporters are involved in the uptake of CLsuGG, the activities of CLsuGG against the YdgR mutant and wild-type E. coli was compared (FIG. 4A). The deletion of YdgR, an inner membrane (IM) proton-coupled transporter for uptaking di- and tripeptides (Prabhala et al., “The Prototypical Proton-Coupled Oligopeptide Transporter YdgR from Escherichia coli Facilitates Chloramphenicol Uptake into Bacterial Cells,” J. Biol. Chem. 293(3):1007-1017 (2018), which is hereby incorporated by reference in its entirety), indeed rescues the bacteria, i.e., increasing cell viability for about 10%.

[3] = tested on: esterase (bioH, yjfP, frsA, ybfF, yfbB, ypfH, yeiG, or yqiA) deletion mutants of E. coli; format: cell-based
Protocol: Bacteria culture and inhibitory activity assay: Single esterase (BioH, YjfP, FrsA, YbfF, YfbB, YqiA, YeiG, or and YpfH) deletion mutants were purchased from Dharmacon Horizon Discovery (Cambridge, United Kingdom). The K12 wild-type E. coli strain (MG1655) was cultured in autoclaved LB medium (25 g/L LB broth/water) in a shaker-incubator overnight to stationary growth phase, and then sub-cultured in the same medium after dilution to OD600 of 0.05. Compounds were added at different concentrations. The mixture of bacteria and compounds were placed (200 μL/well) into 96-well clear flat bottom plates. In all plates, the OD600 was measured before and after 16 hour incubation at 37° C.
Bacteria culture and inhibitory activity assay: Single esterase (bioH, frsA, ybfF, yfbB, yqiA, yeiG, or ypfH) deletion mutants, bacterial transporter (ydgR, fepA and ompF) deletion mutants and the efflux pump (acrA) deletion mutant were all purchased from Dharmacon Horizon Discovery (Cambridge, United Kingdom). The K12 wild-type E. coli strain (MG1655) was cultured in autoclaved LB medium (25 g/L LB broth/water) in a shaker-incubator overnight to stationary growth phase, and then sub-cultured in the same medium after dilution to OD600 of 0.05. Compounds were added at different concentrations. The mixture of bacteria and compounds were placed (200 μL/well) into 96-well clear flat bottom plates. In all plates, the OD600 was measured before and after a 16 hour incubation at 37° C.

[4] = tested on: double esterase (BioH and YjfP) deletion mutant of E. coli; test: Antibacterial activity against double esterase deletion mutant; format: cell-based
Protocol: as §1
To examine the roles of different intrabacterial esterases on the hydrolysis of CLsuGG, the activities of CLsuGG against eight E. coli mutants that have one of bacterial esterase genes (i.e., BioH, YjfP, FrsA, YbfF, YeiG, YfbB, YpfH or YqiA) deleted was measured. […] To confirm the role of intrabacterial esterases, a double mutant E. coli was generated, with the deletion of BioH and YjfP genes (FIGS. 5C-5D). […] These studies confirm that, after CLsuGG enters E. coli, various esterases in bacterial cytoplasm rapidly convert CLsuGG to the active antibiotic agent (i.e., CL).

HepG2 cells = test: Cell viability assay (MTT), HepG2; format: cell-based; conditions: 20 μM, 24 hours
Water solubility = format: physicochemical
HEK293 cells = test: Cell viability assay (MTT), HEK293; conditions: 20 μM, 24 hours

SMILES: COc1cc(Cc2cnc(N)nc2N)cc(OC)c1OC [trimethoprim]
- cytotoxicity of control compounds against HS-5 cells (HS-5 cells; around MIC values (0.5 μM)): relatively low cytotoxicity
- MIC (E. coli K-12): 1 mg/L (≈ 3.44 µM)

SMILES: O=C(O)CNC(=O)CNC(=O)CCC(=O)OCC(NC(=O)C(Cl)Cl)C(O)c1ccc([N+](=O)[O-])cc1 (centres unmarked) [CLsuGG]
- Effect of addition of CES on the MIC value ([1]; exogenous CES): hardly affected
- MIC (μM) ([1]; wild type E. coli (K-12)): 20 µM (≈ 10.7 µg/mL)
- MIC (μg/mL) ([1]; wild type E. coli (K-12)): 10.7 µg/mL (≈ 19.9 µM)
- apparent first-order rate constant of hydrolysis (E. coli (K-12) lysate; E. coli lysate 0.1 U/mL, pH 7.4 PBS, 37° C.): -1.868 h⁻¹
- time to complete hydrolysis (E. coli (K-12) lysate; intrabacterial esterases 0.1 U/mL): ≤ 2 h
- time to complete hydrolysis (carboxylesterase (CES)): more than 12 hours
- conversion (carboxylesterase (CES); after 2 hours): around 70%
- apparent first-order rate constant of hydrolysis (carboxylesterase (CES); compound 200 μM): -0.443 h⁻¹
- increase of cell viability by deletion of YdgR [2]: about 10%
- reduction of antibacterial activity by single esterase gene deletion [3]: slightly
- antibacterial activity relative to the activity against wild type E. coli [4]: 50%
- cytotoxicity / cell viability of HS-5 cells (HS-5 cells; 20 μM): largely innocuous; also recorded: reduced toxicity
- cytotoxicity / cell viability of HepG2 cells (HepG2 cells): hardly altered the cytotoxicity of CL
- water solubility (Water solubility): soluble
- cytotoxicity / cell viability of HEK293 cells (HEK293 cells): hardly altered the cytotoxicity of CL
